Consider one compound from article PMC13510729, “Multiheme selenoenzyme essential for elemental sulfur respiration” (Science Advances, 2026).

The test system of this test is T1, MccSep.
T1 construct: selenoprotein read through an in-frame UGA (Sec325) joining gsu2937 and gsu2936, databases may hold it as two ORFs; C-terminal Factor Xa site and Strep-tag; expressed in G. sulfurreducens PCA delta-mccsep; five heme c per subunit; about 49 kDa; homotetramer of 200 kDa
In words: spectrophotometric oxidation of reduced methyl viologen at […] nm, allosteric sigmoidal fit. It is filed as biochemical, Geobacter sulfurreducens. To be noted: reduced methyl viologen (0.3 mM) with 0.075 mM dithionite, 2 mM CaCl2, 50 mM Bicine-NaOH pH 8.5, 30 °C, anaerobic; Hill coefficient 1.5 ± 0.1; read-out: apparent K0.5.

Regarding `O=[Se](O)O` [selenite], the Km was determined as 990 ± 40 µM.
